Data on 15 compounds can be found in ChEMBL document CHEMBL1201862, “PubChem BioAssay data set” (2004).

As usually defined, the IC50 is the midpoint of a concentration-inhibition curve. The AC50 is the concentration at which the activity in the assay is half-maximal. One may read the EC50 as the concentration giving half of the maximal effect. A word on the CC50: it is the concentration giving 50% cytotoxicity.

The target of data set [1] is T1, Coagulation factor XII (Homo sapiens, UniProt P00748).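 Further: activated factor XIIa alpha cleaving a fluorogenic AMC peptide substrate; inhibitor potency from loss of enzyme activity.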
T1 sequence (P00748 whole entry): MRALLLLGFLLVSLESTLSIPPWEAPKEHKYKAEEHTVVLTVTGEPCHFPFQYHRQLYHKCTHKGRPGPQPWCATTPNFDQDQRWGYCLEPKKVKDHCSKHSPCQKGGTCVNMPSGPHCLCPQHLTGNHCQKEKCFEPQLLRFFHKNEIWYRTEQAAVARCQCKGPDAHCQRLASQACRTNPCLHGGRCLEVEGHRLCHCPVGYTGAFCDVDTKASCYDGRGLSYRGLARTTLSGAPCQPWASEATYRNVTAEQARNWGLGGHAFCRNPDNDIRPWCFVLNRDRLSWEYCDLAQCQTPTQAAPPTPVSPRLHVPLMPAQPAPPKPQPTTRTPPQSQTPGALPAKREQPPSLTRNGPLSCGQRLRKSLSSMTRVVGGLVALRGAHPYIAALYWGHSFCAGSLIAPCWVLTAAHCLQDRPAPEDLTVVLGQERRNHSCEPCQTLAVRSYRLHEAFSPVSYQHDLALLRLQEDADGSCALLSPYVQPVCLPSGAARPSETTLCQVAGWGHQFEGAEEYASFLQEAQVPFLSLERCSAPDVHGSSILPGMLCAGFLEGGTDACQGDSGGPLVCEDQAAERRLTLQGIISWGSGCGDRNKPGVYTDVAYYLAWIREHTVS
The data set is classed as functional.

The target of data set [2] is Cytochrome P450 3A4 (Homo sapiens, UniProt P08684).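 Further: CYP3A4 tested as one member of a cytochrome P450 panel screen.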
Data set [3] relates to HeLa. The data set can be described thus: ATP-based viability loss in HeLa cells – cell-based, CellTiter-Glo luminescence, cherry-pick samples, cytotoxicity control for MITF activator project, dose response (AID 540259). The data set is classed as functional. To be noted: Homo sapiens.
Data set [4] can be described thus: NIH-3T3 fibroblast cytotoxicity, dose response, cytotoxicity control, cell-based, fluorescence, Alamar Blue, secondary assay (AID 2327).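 Further: NIH-3T3 mouse fibroblasts cultured with fluconazole at 8 µg/mL.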 The class given is functional.
Data set [5] is described as follows: fluconazole-exposed Candida albicans growth modulators – fluorescence, retest, confirmation (AID 2467). The data set is classed as functional, cell-based.
Data set [6] deals with T2, Serine/threonine-protein phosphatase (Candida dubliniensis (strain CD36 / CBS 7987 / NCPF 3949 / NRRLY-17841) (Yeast), UniProt B9W6M3).
T2 sequence (B9W6M3 whole entry): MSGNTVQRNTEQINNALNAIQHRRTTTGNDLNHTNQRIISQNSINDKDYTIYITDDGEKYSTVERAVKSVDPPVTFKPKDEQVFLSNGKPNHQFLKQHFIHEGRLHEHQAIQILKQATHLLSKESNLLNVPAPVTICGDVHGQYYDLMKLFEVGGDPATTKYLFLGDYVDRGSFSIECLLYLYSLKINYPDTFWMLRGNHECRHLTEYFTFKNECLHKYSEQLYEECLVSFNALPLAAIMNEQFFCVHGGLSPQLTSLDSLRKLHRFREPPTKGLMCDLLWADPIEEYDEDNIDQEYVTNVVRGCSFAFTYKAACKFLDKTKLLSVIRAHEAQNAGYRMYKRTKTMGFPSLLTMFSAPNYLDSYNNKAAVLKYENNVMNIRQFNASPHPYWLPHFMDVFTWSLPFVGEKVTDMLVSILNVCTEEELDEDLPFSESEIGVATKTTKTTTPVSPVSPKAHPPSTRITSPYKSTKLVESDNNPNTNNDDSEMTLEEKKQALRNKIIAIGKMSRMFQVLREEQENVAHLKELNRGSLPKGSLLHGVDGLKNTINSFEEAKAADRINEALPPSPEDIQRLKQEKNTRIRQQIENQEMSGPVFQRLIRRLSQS
The data set can be described thus: blockers of CaCl2-induced CDRE-lacZ signaling – S. cerevisiae, luminescence, secondary, dose response (AID 2388).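 Further: yeast reporter cells carrying a calcineurin-responsive lacZ construct stimulated with calcium chloride; luminescent beta-galactosidase reporter signal in whole cells rather than isolated phosphatase activity; potency for inhibition where a drop in reporter signal means calcineurin blockade.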 The data set is classed as functional, cell-based.

In data set [7] the target is ATP-dependent molecular chaperone HSP82 (Candida albicans (strain WO-1) (Yeast), UniProt C4YTQ8). The data set can be described thus: steroid-induced GRE reporter decrease in yeast – S. cerevisiae, luminescence, Hsp90 inhibitor project, dose response (AID 2400).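 Further: beta-galactosidase luminescence from glucocorticoid response element reporter as proxy for Hsp90 function; inhibitor potency where signal loss means Hsp90 inhibition.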 The class given is functional, cell-based.
Data set [8] addresses Dual specificity tyrosine-phosphorylation-regulated kinase 1A (Rattus norvegicus, UniProt Q63470). The class given is biochemical, Homo sapiens.
For data set [9], the target named is NAD-dependent protein deacylase sirtuin-5, mitochondrial (Homo sapiens, UniProt Q9NXA8). The data set can be described thus: sirtuin-5 deacylation blockers, concentration series – biochemical, fluorescence imaging, cherry-pick, set 5, dose response (AID 720591).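 Further: desuccinylation of succinyl peptide AMC substrate read as fluorescence after trypsin release; potency of inhibitors that lower fluorescence and may act on trypsin instead.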
Data set [10] addresses T3, Cysteine protease ATG4B (Homo sapiens, UniProt Q9Y4P1).
T3 sequence (Q9Y4P1 whole entry): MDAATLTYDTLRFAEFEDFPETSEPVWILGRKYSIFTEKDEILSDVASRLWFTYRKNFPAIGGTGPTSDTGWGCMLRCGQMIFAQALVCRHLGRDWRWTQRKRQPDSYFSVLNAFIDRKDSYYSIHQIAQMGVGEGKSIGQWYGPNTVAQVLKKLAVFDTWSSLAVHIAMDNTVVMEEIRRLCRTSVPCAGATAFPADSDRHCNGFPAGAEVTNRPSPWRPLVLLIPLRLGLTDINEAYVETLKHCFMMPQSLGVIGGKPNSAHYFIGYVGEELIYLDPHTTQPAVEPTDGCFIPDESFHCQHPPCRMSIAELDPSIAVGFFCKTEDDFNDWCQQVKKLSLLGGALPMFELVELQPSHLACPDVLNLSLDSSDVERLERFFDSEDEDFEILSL
The class given is functional.

For data set [11], the target named is Phospholipase A2 (Homo sapiens, UniProt P04054). The data set is classed as functional.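 Further: confirmatory dose-response counterscreen on phospholipase A2, testing hits that came from an ultra-high-throughput screen for ATG4B inhibitors.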
The target of data set [12] is T4, Apoptotic protease-activating factor 1 (Homo sapiens, UniProt O14727).
T4 sequence (O14727 whole entry): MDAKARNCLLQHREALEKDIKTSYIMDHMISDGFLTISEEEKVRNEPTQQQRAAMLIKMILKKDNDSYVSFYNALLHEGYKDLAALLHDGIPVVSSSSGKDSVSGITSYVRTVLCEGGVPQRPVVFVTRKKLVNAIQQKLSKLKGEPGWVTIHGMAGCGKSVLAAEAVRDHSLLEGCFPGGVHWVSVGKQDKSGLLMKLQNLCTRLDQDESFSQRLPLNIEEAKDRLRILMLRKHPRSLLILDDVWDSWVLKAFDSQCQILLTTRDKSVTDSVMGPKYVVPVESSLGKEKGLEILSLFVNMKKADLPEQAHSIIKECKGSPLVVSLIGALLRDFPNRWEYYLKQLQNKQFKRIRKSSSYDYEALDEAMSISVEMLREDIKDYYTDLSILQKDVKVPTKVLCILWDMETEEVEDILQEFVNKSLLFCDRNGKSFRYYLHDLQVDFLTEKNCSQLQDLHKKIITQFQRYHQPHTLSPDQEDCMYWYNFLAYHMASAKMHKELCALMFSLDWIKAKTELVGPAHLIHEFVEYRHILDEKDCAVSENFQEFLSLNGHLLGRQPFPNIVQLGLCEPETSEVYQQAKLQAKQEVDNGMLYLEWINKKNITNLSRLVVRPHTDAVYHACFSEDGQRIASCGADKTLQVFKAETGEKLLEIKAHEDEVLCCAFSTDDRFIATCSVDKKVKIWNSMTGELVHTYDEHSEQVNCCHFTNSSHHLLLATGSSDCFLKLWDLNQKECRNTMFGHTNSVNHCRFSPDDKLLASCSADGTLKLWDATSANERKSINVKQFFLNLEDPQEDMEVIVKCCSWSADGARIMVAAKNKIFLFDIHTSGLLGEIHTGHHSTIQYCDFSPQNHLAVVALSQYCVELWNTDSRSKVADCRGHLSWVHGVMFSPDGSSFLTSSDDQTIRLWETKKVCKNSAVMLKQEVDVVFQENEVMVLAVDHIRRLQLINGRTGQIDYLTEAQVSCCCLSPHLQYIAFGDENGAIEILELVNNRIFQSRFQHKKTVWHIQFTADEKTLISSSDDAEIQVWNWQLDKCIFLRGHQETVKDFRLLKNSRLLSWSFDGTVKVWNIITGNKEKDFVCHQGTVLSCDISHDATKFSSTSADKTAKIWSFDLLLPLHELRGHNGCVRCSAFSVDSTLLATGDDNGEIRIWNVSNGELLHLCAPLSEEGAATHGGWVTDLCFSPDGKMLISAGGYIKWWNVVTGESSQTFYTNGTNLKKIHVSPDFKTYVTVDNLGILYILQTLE
The data set is classed as functional.

For data set [13], the system named is Vero. The data set can be described thus: mammalian cell viability reduction – secondary assay, cytotoxicity control for West Nile virus antiviral project, dose response (AID 1650). To be noted: Chlorocebus sabaeus. The class given is functional.
Data set [14] concerns Vero. The data set can be described thus: cells. The class given is functional, cell-based. To be noted: Chlorocebus sabaeus.
Data set [15] concerns Vero. The data set can be described thus: cells. To be noted: Chlorocebus sabaeus. The data set is classed as functional.
Data set [16] deals with Cytochrome P450 2C9 (Homo sapiens, UniProt P11712).
Data set [17] concerns BJ. Kind of data set: BJ-TERT fibroblast viability loss – cell-based, RAS-independent, luminescence, dose response (AID 1933). The class given is functional. To be noted: Homo sapiens.
Data set [18] relates to BJ. Kind of data set: cells. The data set is classed as functional, cell-based. To be noted: Homo sapiens.
The subject of data set [19] is BJ. Kind of data set: BJ-TERT-LT-ST fibroblast viability loss – cell-based, RAS-independent, luminescence, dose response (AID 1935).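 Further: BJ fibroblasts immortalized with TERT plus LT and ST oncogenes.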 The data set is classed as functional. To be noted: Homo sapiens.
Data set [20] can be described thus: DRD fibroblast viability loss – cell-based, non-viral oncogenic, luminescence, dose response (AID 1934). The class given is functional. To be noted: Homo sapiens.
The subject of data set [21] is BJ. The data set can be described thus: growth inhibition of engineered Ras-driven BJ cells – cell-based, alamar blue fluorescence, cherrypicked samples, dose response (AID 2631).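 Further: confirmatory dose-response assay in RAS-dependent BJ fibroblasts engineered with TERT, LT and ST, with cytotoxicity read by fluorescence.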 The class given is functional. To be noted: Homo sapiens. (In general: The colour change of resazurin is a common sign of viable cells or microbes.)
The test system of data set [22] is INS1. Kind of data set: INS-1E survival protection against cytokine death – cell-based, luminescence, retest, dose response (AID 449756).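 Further: cell death triggered by IL-1 beta plus TNF-alpha plus IFN-gamma mixture; protective hits raise ATP signal compared with cytokine alone wells.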 The data set is classed as functional. To be noted: Rattus norvegicus.

Calls of active or inactive are those of the source. A value given as a limit tells only on which side of the number the result lay.

Chain of Cytochrome P450 3A4 (P08684 whole entry): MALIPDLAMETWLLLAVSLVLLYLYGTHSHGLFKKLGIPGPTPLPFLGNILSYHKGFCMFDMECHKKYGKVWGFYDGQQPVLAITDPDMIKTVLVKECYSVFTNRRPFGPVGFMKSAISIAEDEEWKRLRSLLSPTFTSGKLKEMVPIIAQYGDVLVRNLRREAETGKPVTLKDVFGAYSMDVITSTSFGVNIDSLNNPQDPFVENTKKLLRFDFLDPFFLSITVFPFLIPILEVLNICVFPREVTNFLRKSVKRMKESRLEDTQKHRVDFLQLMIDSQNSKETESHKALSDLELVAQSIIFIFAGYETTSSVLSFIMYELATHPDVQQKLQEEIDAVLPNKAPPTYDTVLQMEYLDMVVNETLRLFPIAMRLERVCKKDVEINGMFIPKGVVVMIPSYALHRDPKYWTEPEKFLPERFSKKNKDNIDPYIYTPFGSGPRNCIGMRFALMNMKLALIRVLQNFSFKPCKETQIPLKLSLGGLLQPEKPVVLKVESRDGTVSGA
Chain of NAD-dependent protein deacylase sirtuin-5, mitochondrial (Q9NXA8 whole entry): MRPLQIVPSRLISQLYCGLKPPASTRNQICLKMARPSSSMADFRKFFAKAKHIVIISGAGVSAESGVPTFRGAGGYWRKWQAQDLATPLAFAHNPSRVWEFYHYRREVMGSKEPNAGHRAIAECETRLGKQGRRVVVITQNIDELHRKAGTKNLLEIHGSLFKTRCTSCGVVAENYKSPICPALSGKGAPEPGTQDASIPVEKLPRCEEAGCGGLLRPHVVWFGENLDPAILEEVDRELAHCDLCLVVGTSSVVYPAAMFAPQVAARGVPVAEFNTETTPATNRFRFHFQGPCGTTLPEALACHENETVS
Chain of Cytochrome P450 2C9 (P11712 whole entry): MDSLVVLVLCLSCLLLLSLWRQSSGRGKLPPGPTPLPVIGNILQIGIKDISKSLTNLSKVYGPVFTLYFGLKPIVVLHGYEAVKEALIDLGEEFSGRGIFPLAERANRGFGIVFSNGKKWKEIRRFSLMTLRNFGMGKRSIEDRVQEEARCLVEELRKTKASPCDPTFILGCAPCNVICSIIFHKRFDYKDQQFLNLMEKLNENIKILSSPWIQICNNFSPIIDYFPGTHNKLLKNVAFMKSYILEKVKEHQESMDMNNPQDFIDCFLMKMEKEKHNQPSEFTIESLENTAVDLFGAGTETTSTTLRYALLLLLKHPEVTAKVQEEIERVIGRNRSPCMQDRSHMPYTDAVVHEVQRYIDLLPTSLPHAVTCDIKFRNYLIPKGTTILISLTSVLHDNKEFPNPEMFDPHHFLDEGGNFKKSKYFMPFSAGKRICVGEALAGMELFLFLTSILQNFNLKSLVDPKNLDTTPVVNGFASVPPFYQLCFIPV
Chain of Phospholipase A2 (P04054 whole entry): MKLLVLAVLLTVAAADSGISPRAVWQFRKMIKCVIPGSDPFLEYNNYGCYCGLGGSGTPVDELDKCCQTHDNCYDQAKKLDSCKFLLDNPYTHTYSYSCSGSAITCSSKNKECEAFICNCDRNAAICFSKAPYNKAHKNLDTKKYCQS
Chain of ATP-dependent molecular chaperone HSP82 (C4YTQ8 whole entry): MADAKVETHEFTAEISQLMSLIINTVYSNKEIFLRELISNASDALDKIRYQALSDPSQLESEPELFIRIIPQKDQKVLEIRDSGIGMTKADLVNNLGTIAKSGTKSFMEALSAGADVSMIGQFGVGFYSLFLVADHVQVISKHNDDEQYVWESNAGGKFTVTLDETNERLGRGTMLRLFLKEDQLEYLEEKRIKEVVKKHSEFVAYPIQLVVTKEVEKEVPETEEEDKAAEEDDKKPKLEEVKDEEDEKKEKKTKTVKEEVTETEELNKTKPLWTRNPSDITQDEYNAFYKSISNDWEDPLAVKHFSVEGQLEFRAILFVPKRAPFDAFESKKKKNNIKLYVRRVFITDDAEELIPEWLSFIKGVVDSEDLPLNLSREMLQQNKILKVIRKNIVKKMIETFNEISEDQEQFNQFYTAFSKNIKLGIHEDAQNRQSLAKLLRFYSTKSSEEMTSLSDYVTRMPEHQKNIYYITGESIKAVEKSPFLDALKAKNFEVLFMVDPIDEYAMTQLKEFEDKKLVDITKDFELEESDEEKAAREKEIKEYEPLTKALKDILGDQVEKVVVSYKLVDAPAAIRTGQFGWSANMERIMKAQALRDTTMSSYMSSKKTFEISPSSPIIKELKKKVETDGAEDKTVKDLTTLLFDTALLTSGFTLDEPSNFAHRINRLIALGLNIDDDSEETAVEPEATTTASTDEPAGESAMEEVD

In the case of `O=C(NCc1ccncc1)c1ccc(Br)o1`, the IC50 in data set [1] is > 50 µM (inactive).
In the case of `CCCn1c(C)c(C(=O)c2ccc3ccccc3c2)c2ccccc21`, the AC50 entry in [2] is listed as “inconclusive”.
Consider `Cc1ccc(NC(=O)c2sc3nc(C)cc(C)c3c2N)cc1`, for which the AC50 in [3] is 213 µM (active).
The same measure, in the same setting: for `Cc1ccc(OCc2cc(C(=O)N3C[C@H]4C[C@H]5C[C@@H](C4)C[C@H]3C5)no2)cc1C` the value was 151 µM (active).
The same measure, in the same setting: then `CCCCn1cnc2sc(-c3ccccc3)cc2c1=O`, with 111 µM (active).
For `O=C1CCCc2ccccc2N1Cc1ccccc1Cl`, the AC50 entry in [2] is “inconclusive”.
On to `CS(=O)(=O)NN1C(=O)c2ccccc2NC1c1cccc2cccnc12` (stereo not given), for which the EC50 is > 160 µM (inactive) in [4], 0.697 µM (active) in [5], > 180 µM (inactive) in data set [6] and > 160 µM (inactive) in [7].
Regarding `CCN(CC)c1c([N+](=O)[O-])c(=O)sc2ccccc12`, the AC50 in data set [8] is > 120 µM (inactive).
For `O=S(=O)([N-]c1nc2ccccc2nc1-[n+]1ccn(Cc2ccccc2)c1)c1ccc(Cl)cc1`, in data set [1], the IC50 is > 50 µM (inactive). Further, the AC50 in data set [9] is 24.8 µM (active).
With `CN(C)c1cccc(C(=O)n2cc(C(=O)c3cc(F)ccc3O)cn2)c1`, the results for the IC50 in [1], in data set [10] and in [11] were 12.4 µM (active), 7.59 µM (active) and 9.78 µM (active), respectively.
As to `Cc1cccc(C)c1NC(=O)Cn1cc(C=O)c2ccccc21`, the IC50 in data set [12] is > 100 µM (inactive).
As to `CC1(C)COC(/C=C/c2ccc([N+](=O)[O-])cc2)=N1`, the CC50 is 10.2 µM (active) in data set [13] and 12.4 µM (active) in data set [15]. Also, the IC50 in data set [14] was > 25 µM (active).
As for `Cc1ccc(Nc2ncc(C(=O)NCCCN3CCN(C)CC3)c3ccccc23)cc1Cl`, the IC50 in [14] was 22.7 µM (active). Moreover, the CC50 in [15] was > 25 µM (active).
As to `CCOC(=O)/C(C#N)=C\N(C)C`, the AC50 in [16] was 39.8 µM (inconclusive); in data set [2], “inconclusive”.
On to `CCOc1ccc(/N=C/c2c(C)[nH]n(-c3nc4ccccc4[nH]3)c2=O)cc1`, for which the EC50 was 1.22 µM (active) in data set [17]; 2.41 µM (active) in [18]; 4.74 µM (inconclusive) in data set [19]; 2.52 µM (active) in data set [20]; > 133 µM (inactive) in [21]. Moreover, in data set [22], the AC50 is 1.98 µM (active).
